Measured values published in patent US20160176961A1, “THROMBOPOIETIN RECEPTOR LIGANDS FOR NEUROPROTECTION” (MCW Research Foundation, Inc., priority 2011, published 2016).
“Also recorded” adds a separate entry of the source.

How the values were obtained:
[1] = compared with Tpo itself; literature (Blood 85:981; J interferon Cyto Res); cited from earlier work
[2] = tested on: heart; conditions: earlier work of the inventor, U.S. Pat. No. 7,879,318; cited from earlier work
[3] = tested on: Male Sprague Dawley rats; assay: left middle cerebral artery occlusion followed by reperfusion (focal stroke); format: in vivo, rat
Protocol: Male Sprague Dawley rats, 10 weeks of age (n=6/group) undergo 2-3 hours of left middle cerebral artery occlusion followed by 20-48 hours of reperfusion. Vehicle or thrombopoietin (0.03 to 1.00 μg/kg) is administered intravenously immediately after reperfusion. Brain infarct and swelling, neurologic deficits, matrix metalloproteinase-9 (MMP-9), tissue inhibitor of metalloproteinase-1 (TIMP-1), thrombopoietin and c-Mpl (thrombopoietin receptor) mRNA and protein, MMP-9 enzyme activity and protein expression, and the integrity of the blood-brain barrier are measured. Reperfusion of the left middle cerebral artery occlusion is expected to produce a large infarct and swelling after stroke.
Thrombopoietin is administered intravenously over the range 0.001-10 μg/kg. […] Stroke-induced increases in cortical MMP-9 mRNA, enzyme activity and protein expression, TIMP-1 mRNA, and Evans blue extravasation would be reduced by administration of thrombopoietin.

[4] = rat MCA occlusion/reperfusion, i.v. thrombopoietin

## CC1=NN(c2ccc(C)c(C)c2)C(=O)/C1=N\Nc1cccc(-c2cccc(C(=O)O)c2)c1O [eltrombopag]
[1]
  crossing of the blood brain barrier relative to Tpo: cross the blood brain barrier more effectively than does Tpo itself

## Thrombopoietin
[2]
  protection of the heart against deleterious effects of ischemia/reperfusion: protects the heart against various deleterious effects of ischemia/reperfusion
[3]; i.v., tested over the range 0.001-10 μg/kg, immediately or 2 hours after reperfusion
  most effective thrombopoietin dose: 0.05 to 1.0 µg/kg
[3]; [4]
  stroke-induced increase in Evans blue extravasation (blood-brain barrier integrity): reduced
  stroke-induced increase in TIMP-1 mRNA: reduced
  stroke-induced increases in cortical MMP-9 mRNA, enzyme activity and protein expression: reduced
[3]; rat MCA occlusion/reperfusion, i.v. immediately or 2 hours after reperfusion, vs untreated controls
  neurologic deficits after stroke: ameliorate
[3]; rat, 2-3 h MCA occlusion, 20-48 h reperfusion, thrombopoietin i.v. immediately or 2 hours after reperfusion, vs untreated controls
  infarct size and swelling: significantly reduces these indices of injury to the brain in a dose-dependent manner; also recorded: significantly reduce

## romiplostim
[1]
  crossing of the blood brain barrier relative to Tpo: cross the blood brain barrier more effectively than does Tpo itself
